Assay: xn = mol fraction of the nth substance listed
Settings: 101 kPa

CCOC(C)=O + CCCCn1cc[n+](C)c1.Cl[Fe-](Cl)(Cl)Cl
x2 = 0
Settings | viscosity [mPa·s]
293.15 K | 0.46
298.15 K | 0.43
303.15 K | 0.41
308.15 K | 0.39
313.15 K | 0.37
318.15 K | 0.35
323.15 K | 0.33

CCCCn1cc[n+](C)c1.[Cl][Fe-]([Cl])([Cl])[Cl] + CCOC(C)=O
viscosity [mPa·s]
Settings | x1 = 0.1002 | x1 = 0.1999 | x1 = 0.3007 | x1 = 0.3999 | x1 = 0.5 | x1 = 0.6001 | x1 = 0.7 | x1 = 0.7973 | x1 = 0.9 | x1 = 1
293.15 K | 1.17 | 2.37 | 4.32 | 7.33 | 11.15 | – | 22.98 | 30.8 | 41.3 | 56.6
298.15 K | 1.09 | 2.19 | 3.92 | 6.53 | 9.78 | 14.09 | 19.72 | – | – | 46
303.15 K | 1.02 | 2.01 | 3.56 | 5.84 | 8.64 | – | 16.92 | – | 28.7 | 37.9
308.15 K | 0.97 | – | 3.26 | – | 7.69 | – | 14.65 | – | 24.4 | –
313.15 K | 0.91 | – | 2.99 | 4.76 | 6.88 | 9.63 | 12.81 | – | 21.04 | 27
318.15 K | 0.86 | 1.66 | – | – | 6.19 | 8.65 | 11.32 | 14.58 | – | 23.24
323.15 K | 0.82 | 1.57 | 2.56 | 3.98 | 5.63 | 7.79 | 10.08 | 12.88 | 16.08 | 20.16

From a compilation of properties of binary mixtures (doi:10.1016/j.molliq.2017.08.014)
